Here are results for three compounds from patent US5863944A, “Compounds and compositions for delivering active agents” (Emisphere Technologies, Inc., priority 1997, dated 1999).

Converted amounts (≈) assume the structure as drawn.

The nature of this series: Carrier properties: solubility. The class given is physicochemical. The settings on record: for Solubility (appearance): 200 mg/mL.

In the case of `Nc1ccc(F)cc1C(=O)NCCCCCCCC(=O)O` [Compound 1, N-(2-Amino-5-fluorobenzoyl)-8-aminocaprylic Acid], for the setting “pH = 8.7”, the “Solubility (appearance)” value is reported as “slightly milky”. This compound gave a solubility (pH 8.7) of 200 mg/mL (≈ 675 mM).

With `Nc1ccc(F)cc1C(=O)Nc1ccc(CCCC(=O)O)cc1` [Compound 2, 4-(N-(2-amino-5-fluorobenzoyl)-4-aminophenyl)butyric], where the note is “pH = 8.44”, the “Solubility (appearance)” value is listed as “milky suspension”. The compound also displayed a solubility (pH 8.44) of 200 mg/mL (≈ 632 mM).

With `O=C(O)CCCCCCCC(=O)Nc1cc(Cl)ccc1O` [Compound 3, 8-(2-hydroxy-5-chloroanilinocarbonyl)octanoic acid], the “Solubility (appearance)” value (pH = 8.28) is “soluble”. In addition, the solubility (soluble at pH = 8.28) came to 200 mg/mL (≈ 637 mM).
